Columns and labels:
[1] = tested on: mustard beetle larvae (Phaedon cochleariae); experiment: Phaedon larvae test; assay type: in vivo; settings: active compound concentration of 0.1%, after 7 days, dipped cabbage leaves
Protocol: Phaedon larvae test Solvent: 7 parts by weight of dimethylfornamide Emulsifier: 1 part by weight of alkylaryl polyglycol ether To produce a suitable preparation of active compound, 1 part by weight of active compound is mixed with the stated amount of solvent and emulsifier, and the concentrate is diluted with water to the desired concentration. Cabbage leaves (Brassica oleracea) are treated by being dipped into the preparation of active compound of the desired concentration and populated with mustard beetle larvae (Phaedon cochleariae) while the leaves are still moist.

[2] = tested on: caterpillars of the army worm (Spodoptera frugiperda); experiment: Spodoptera frugiperda test; assay type: in vivo; settings: active compound concentration of 0.1%, after 7 days, dipped cabbage leaves
Protocol: Spodoptera frugiperda test
(§1) Solvent: 7 parts by weight of dimethylformamide
(§2) Emulsifier: 1 part by weight of alkylaryl polyglycol ether
To prepare a suitable preparation of active compound, 1 part by weight of active compound is mixed with the stated amount of solvent and emulsifier, and the concentrate is diluted with water to the desired concentration.
Cabbage leaves (Brassica oleracea) are treated by being dipped into the preparation of active compound of the desired concentration and populated with caterpillars of the army worm (Spodoptera frugiperda) while the leaves are still moist.
After the desired period of time, the kill in % is determined. 100% means that all caterpillars have been killed; 0% means that none of the caterpillars have been killed.

[3] = tested on: all stages of the greenhouse red spider mite (Tetranychus urticae); experiment: Tetranychus test (OP-resistant/dip treatment); assay type: in vivo
Protocol: Tetranychus test (OP-resistant/dip treatment)
as §1, §2
To produce a suitable preparation of active compound, 1 part by weight of active compound is mixed with the stated amount of solvent and emulsifier, and the concentrate is diluted with emulsifier-containing water to the desired concentration.
Bean plants (Phaseolus vulgaris) which are heavily infested by all stages of the greenhouse red spider mite (Tetranychus urticae) are dipped into a preparation of active compound of the desired concentration.
After the desired period of time, the effect in % is determined. 100% means that all spider mites have been killed, 0% means that none of the spider mites have been killed.

Lucilia cuprina larvae = experiment: Blowfly larvae test/development-inhibitory action; assay type: in vivo; settings: active compound concentration of 100 ppm; 100% means that none of the flies have hatched
Protocol: Blowfly larvae test/development-inhibitory action
Test animals: Lucilia cuprina larvae
Solvent: Dimethylsulfoxide
20 mg of active compound are dissolved in 1 ml of dimethyl suiphoxide, and more dilute concentrations are prepared by dilution with dist. water.
Approximately 20 Lucilia cuprina larvae are introduced into a test tube which contains approximately 1 cm^3 of horse meat and 0.5 ml of the active compound preparation to be tested. After 24 and 48 hours, the efficacy of the preparation of active compound is determined. The test tubes are transferred into a beaker with sand-covered bottom. After a further 2 days, the test tubes are removed and the pupae are counted.
The effect of the preparation of active compound is assessed by the number of the flies which have hatched after 1.5 times the development time of an untreated control. 100% means that none of the flies have hatched; 0% means that all flies have hatched normally.

[4] = active compound concentration of 0.01%, after 7 days, dipped bean plants

| SMILES | kill [1] | kill [2] | kill [3, 4] | melting point | kill ([3]; 168 h) | efficacy (Lucilia cuprina larvae) |
| --- | --- | --- | --- | --- | --- | --- |
| CCOCN1C(c2c(F)cccc2F)=NCC1c1ccc(-c2ccc(OC(F)(F)F)cc2)cc1 (stereo not drawn) [Example I-6b, 3-ethoxymethyl-4-(4′-trifluoromethoxy-4-biphenylyl)-2-(2,6-difluorophenyl)-4,5-di-hydro-3H-imidazole] | 100% | – | – | – | – | – |
| CC(=O)N1CC(c2ccc(-c3ccc(OC(F)(F)F)cc3)cc2)N=C1c1c(F)cccc1F (stereo not drawn) [Example I-7a, 1-acetyl-4-(4′-trifluoromethoxy-4-biphenylyl)-2-(2,6-difluorophenyl)-4,5-dihydro-1H-imidazole] | 90% | 100% | 100% | – | – | – |
| NC(=S)N1CC(c2ccc(-c3ccc(OC(F)(F)F)cc3)cc2)N=C1c1c(F)cccc1F (stereo not drawn) [Example I-8, 4-(4′-trifluoromethoxy4-biphenylyl)-2-(2,6-difluorophenyl)-1-thiocarbamoyl-4,5-dihydro-1H-imidazole] | 100% | 100% | 95% | 93 to 95 °C | – | – |
| CCOC(=O)N1CC(c2ccc(-c3ccc(OC(F)(F)F)cc3)cc2)N=C1c1c(F)cccc1F (stereo not drawn) [Example I-3, 1-ethoxycarbonyl4-(4′-trifluoromethoxy-4-biphenylyl)-2-(2,6-difluoro-phenyl)-4,5-dihydro-1H-imidazole] | – | 100% | – | 105 to 107 °C | 100% | 100% |
| N#CN1CC(c2ccc(-c3ccc(OC(F)(F)F)cc3)cc2)N=C1c1c(F)cccc1F (stereo not drawn) [Example I-5a, 1-cyano-4-(4′-trifluoromethoxy-4-biphenylyl)-2-(2,6-difluorophenyl)-4,5-dihydro-1H-imidazole] | 100% | 100% | 100% | 123 to 124 °C | – | – |
| N#CN1C(c2c(F)cccc2F)=NCC1c1ccc(-c2ccc(OC(F)(F)F)cc2)cc1 (stereo not drawn) [Example I-5b, 3-cyano-4-(4′-trifluoromethoxy-4-biphenylyl)-2-(2,6-difluorophenyl)-4,5-dihydro-3H-imidazole] | 100% | 100% | 100% | – | – | – |
| CCOC(=O)N1CC(c2ccc(-c3ccc(OC(F)(F)F)cc3)cc2)N=C1c1ccccc1Cl (stereo not drawn) [Example I-4, 2-(2-chlorophenyl)-1-ethoxycarbonyl-4-(4′-trifluormethoxy-4-biphenylyl)-4,5-dihydro-1H-imidazole] | 100% | 100% | – | – | – | – |
| CCOCN1CC(c2ccc(-c3ccc(OC(F)(F)F)cc3)cc2)N=C1c1c(F)cccc1F (stereo not drawn) [Example I-6a, 1-ethoxymethyl-4-(4′-trifluoromethoxy-4-biphenylyl)-2-(2,6-difluorophenyl)-4,5-di-hydro-1H-imidazole] | 100% | 100% | 100% | – | – | – |

— patent publication US6380237B1, “Diphenylimidazolines” (Bayer Aktiengesellschaft, priority 1998, dated 2002)
